Data published in US20200024662A1, “METHODS FOR TREATING OPIOID ADDICTION” (ASSUREX HEALTH, INC., priority 2016, published 2020).

Columns and labels:
Format in all cases: in vivo, human
[1] = system: patients treated with Methadone in the START trial; test: Baseline model (GeneSight Analgesic test) binning vs Methadone completion; details: Full Sample
Method: (§1) For the model analyses, models were developed that sort patients into one of three categories, Green (‘G’) Yellow (‘Y’) or Red (‘R’). Patients determined to be high risk for non-completion by the model are placed into the Red Bin. Patients at intermediate risk of non-completion are placed in the Yellow Bin, and for this study, Yellow Bin patients are treated the same as patients found to be at Low Risk of non-completion, or those who are placed in the Green Bin. Thus, the Green and Yellow bins are combined for analysis.
The GeneSight Analgesic test (commercial test available from Assurex Health, Inc.) was used as a baseline to determine High Risk patients entering methadone maintenance therapy. Furthremore, the following PK, PD and PK/PD models were evaluated.
(§2) Samples from patients treated with Methadone in the START trial described in Example 1 above were used (N=352). […] Each model was tested as described below against Sample 1, Sample 2 and/or the Full Sample.
(§3) Pearson's product moment, Chi-square with Yates correction were calculated. Diagnostic tests, odds ratios, Pearson's product moment, Chi-square with Yates correction were calculated using MEDCALC and R version 3.3.1.

[2] = system: patients treated with Methadone in the START trial; test: PK model (predicted exposure) binning vs Methadone completion
Method: as §1
The PK model represents a physiologically based pharmacokinetic algorithm that combines combinatorial pharmacogenetics with a physiological algorithm for predicting medication exposure, as described elsewhere herein. Model assignments to G Y or R were based on the therapeutic ranges provided by the literature for methadone as shown in Table 15.
as §2, §3

[3] = system: patients treated with Methadone in the START trial; test: PD Model 1 binning vs Methadone completion
Method: as §1
PD Model 1: The completion percentage was calculated for each genotype. For each gene and genotype completion percentage, the means and standard deviations were calculated. For each genotype that was greater than or equal to one standard deviation away from the mean, towards higher completion, a score of 1 was given. For each genotype that was greater than or equal to one standard deviation away from the mean, towards lower completion, a score of −1 was given. All others received a score of 0. The patient's PD risk was calculated by summing the total genotype risk score. The individual risk scores were combined to create the SumRisk variable; a final score of −1 was converted to Green, a score of 0 was converted to Yellow, and a score of 1 was converted to Red. […] A listing of tested alleles, and score assignments for PD Model 1 can be found in Table 16.
as §2, §3

[4] = system: patients treated with Methadone in the START trial; test: PK/PD Model 2 binning vs Methadone completion
Method: as §1
Three separate PK/PD Models were generated by combining the PK model with each of the three PD models separately as follows. For each PKPD model, the corresponding PD risk score was added to the raw PK score (bin). A total PD risk score that was negative, represents a reduction of the baseline PK score, while a total PD risk score that was positive represented an increase in the baseline PK score.
as §2, §3

[5] = PD Model 1, Full Sample, COMT Low Risk, SLC6A4 High Risk (Yellow)
[6] = PD Model 1, Full Sample, COMT Low Risk, SLC6A4 Normal Risk (Green)
[7] = PD Model 1, Full Sample, COMT Normal Risk, SLC6A4 High Risk (Red)
[8] = PD Model 1, Full Sample, COMT Normal Risk, SLC6A4 Normal Risk (Yellow)
[9] = PD Model 1, Full Sample, Green bin
[10] = PD Model 1, Full Sample, Red bin
[11] = PD Model 1, Full Sample, Yellow bin
[12] = PD Model 1, Sample 1, COMT Low Risk, SLC6A4 High Risk (Yellow)
[13] = PD Model 1, Sample 1, COMT Low Risk, SLC6A4 Normal Risk (Green)
[14] = PD Model 1, Sample 1, COMT Normal Risk, SLC6A4 High Risk (Red)
[15] = PD Model 1, Sample 1, COMT Normal Risk, SLC6A4 Normal Risk (Yellow)
[16] = PD Model 1, Sample 1, Green bin
[17] = PD Model 1, Sample 1, Yellow bin
[18] = PD Model 1, Sample 2, COMT Low Risk, SLC6A4 High Risk (Yellow)
[19] = PD Model 1, Sample 2, COMT Low Risk, SLC6A4 Normal Risk (Green)
[20] = PD Model 1, Sample 2, COMT Normal Risk, SLC6A4 High Risk (Red)
[21] = PD Model 1, Sample 2, COMT Normal Risk, SLC6A4 Normal Risk (Yellow)
[22] = PD Model 1, Sample 2, Green bin
[23] = PD Model 1, Sample 2, Yellow bin
[24] = PK/PD Model 2, Full Sample, Green bin, Risk Score −2.2 to 1
[25] = PK/PD Model 2, Full Sample, Red bin, Risk Score 2.7 to 4.7
[26] = PK/PD Model 2, Full Sample, Yellow bin, Risk Score 1.1 to 2.5
[27] = PK/PD Model 2, Sample 1, Green bin, Risk Score −2.3 to 2
[28] = PK/PD Model 2, Sample 1, Red bin, Risk Score 3.3 to 6.7
[29] = PK/PD Model 2, Sample 1, Yellow bin, Risk Score 2.2 to 3.2
[30] = PK/PD Model 2, Sample 2, Green bin, Risk Score −2.2 to 1
[31] = PK/PD Model 2, Sample 2, Red bin, Risk Score 2.7 to 4.7
[32] = PK/PD Model 2, Sample 2, Yellow bin, Risk Score 1.1 to 2.5

CCC(=O)C(CC(C)N(C)C)(c1ccccc1)c1ccccc1 (stereo not drawn) [Methadone, methadone]
Completers ([1]; Green bin): 170 | Non Completers ([1]; Green bin): 19 | Completers ([1]; Red bin): 28 | Non Completers ([1]; Red bin): 3 | Completers ([1]; Yellow bin): 109 | Non Completers ([1]; Yellow bin): 23 | Completers ([2]; Full Sample, Green bin): 181 | Non Completers ([2]; Full Sample, Green bin): 11 | Completers ([2]; Full Sample, Red bin): 33 | Non Completers ([2]; Full Sample, Red bin): 22 | Completers ([2]; Full Sample, Yellow bin): 93 | Non Completers ([2]; Full Sample, Yellow bin): 12 | Completers ([2]; Sample 1, Green bin): 91 | Non Completers ([2]; Sample 1, Green bin): 6 | Completers ([2]; Sample 1, Red bin): 12 | Non Completers ([2]; Sample 1, Red bin): 8 | Completers ([2]; Sample 1, Yellow bin): 53 | Non Completers ([2]; Sample 1, Yellow bin): 6 | Completers ([2]; Sample 2, Green bin): 94 | Non Completers ([2]; Sample 2, Green bin): 7 | Completers ([2]; Sample 2, Red bin): 13 | Non Completers ([2]; Sample 2, Red bin): 6 | Completers ([2]; Sample 2, Yellow bin): 52 | Non Completers ([2]; Sample 2, Yellow bin): 4 | Completers [3, 5]: 13 | Non Completers [3, 5]: 1 | Completers [3, 6]: 62 | Non Completers [3, 6]: 4 | Completers [3, 7]: 39 | Non Completers [3, 7]: 13 | Completers [3, 8]: 193 | Non Completers [3, 8]: 27 | Completers [3, 9]: 62 | Non Completers [3, 9]: 4 | Odds Ratio for non-completion ([3]; PD Model 1, Full Sample, LR/HR vs. NR/NR): 0.5499 | Odds Ratio for non-completion ([3]; PD Model 1, Full Sample, LR/NR vs. NR/HR): 0.1935 | Odds Ratio for non-completion ([3]; PD Model 1, Full Sample, LR/NR vs. NR/NR): 0.4612 | Odds Ratio for non-completion ([3]; PD Model 1, Full Sample, NR/HR vs. NR/NR): 2.3827 | Completers [3, 10]: 39 | Non Completers [3, 10]: 13 | Completers [3, 11]: 206 | Non Completers [3, 11]: 28 | Completers [3, 12]: 8 | Non Completers [3, 12]: 0 | Completers [3, 13]: 34 | Non Completers [3, 13]: 1 | Completers [3, 14]: 20 | Non Completers [3, 14]: 7 | Completers [3, 15]: 94 | Non Completers [3, 15]: 12 | Completers [3, 16]: 34 | Non Completers [3, 16]: 1 | Odds Ratio for non-completion ([3]; PD Model 1, Sample 1, LR/HR vs. NR/NR): 0.4447 | Odds Ratio for non-completion ([3]; PD Model 1, Sample 1, LR/NR vs. NR/HR): 0.0840 | Odds Ratio for non-completion ([3]; PD Model 1, Sample 1, LR/NR vs. NR/NR): 0.2304 | Odds Ratio for non-completion ([3]; PD Model 1, Sample 1, NR/HR vs. NR/NR): 2.7417 | Completers ([3]; PD Model 1, Sample 1, Red bin): 20 | Non Completers ([3]; PD Model 1, Sample 1, Red bin): 7 | Completers [3, 17]: 102 | Non Completers [3, 17]: 12 | Completers [3, 18]: 7 | Non Completers [3, 18]: 0 | Completers [3, 19]: 39 | Non Completers [3, 19]: 2 | Completers [3, 20]: 21 | Non Completers [3, 20]: 6 | Completers [3, 21]: 92 | Non Completers [3, 21]: 9 | Completers [3, 22]: 39 | Non Completers [3, 22]: 2 | Odds Ratio for non-completion ([3]; PD Model 1, Sample 2, LR/HR vs. NR/NR): 0.6491 | Odds Ratio for non-completion ([3]; PD Model 1, Sample 2, LR/NR vs. NR/HR): 0.1795 | Odds Ratio for non-completion ([3]; PD Model 1, Sample 2, LR/NR vs. NR/NR): 0.5242 | Odds Ratio for non-completion ([3]; PD Model 1, Sample 2, NR/HR vs. NR/NR): 2.9206 | Completers ([3]; PD Model 1, Sample 2, Red bin): 21 | Non Completers ([3]; PD Model 1, Sample 2, Red bin): 6 | Completers [3, 23]: 99 | Non Completers [3, 23]: 9 | Completers [4, 24]: 167 | Non Completers [4, 24]: 8 | Completers [4, 25]: 60 | Non Completers [4, 25]: 20 | Completers [4, 26]: 80 | Non Completers [4, 26]: 17 | Completers [4, 27]: 88 | Non Completers [4, 27]: 3 | Completers [4, 28]: 27 | Non Completers [4, 28]: 8 | Completers [4, 29]: 41 | Non Completers [4, 29]: 9 | Completers [4, 30]: 92 | Non Completers [4, 30]: 2 | Completers [4, 31]: 19 | Non Completers [4, 31]: 9 | Completers [4, 32]: 48 | Non Completers [4, 32]: 6
